The values that follow come from patent US20260130936A1, “COMPOSITIONS COMPRISING AN ACTIVE INGREDIENT MIXTURE COMPRISING SILICON AND BIOTIN AND METHODS OF USE” (Nutrition21, LLC, priority 2022, published 2026).

The test system of series [1] is hair and nail growth. In words: Hair density, anagen ratio, telogen ratio, nail growth and molecular analysis in rats (Example 4). It counts as in vivo, Sprague-Dawley rats. As for the experimental part: Twenty-eight female Sprague-Dawley rats (8 weeks old) were randomized into one of the following groups: (i) group (control), shaved; (ii) group (ASI), shaved+ASI (4.14 mg/rat/day); (iii) group (ASI+MgB I), shaved+ASI (4.14 mg/rat/day)+MgB (48.7 μg/rat/day); and (iv) group (ASI+MgB II), shaved+ASI (4.14 mg/rat/day)+MgB (325 μg/rat/day). On day 42, compared with the control group, while hair density (p<0.05, p<0.01, and p<0.0001, respectively) and anagen ratio (p<0.01, p<0.01, and p<0.001) increased in the ASI, ASI+MgB I, and ASI+MgB II groups, telogen ratio decreased (p<0.01, p<0.01, and p<0.001, respectively). In the molecular analysis, VEGF, HGF, and KGF-2 increased in the ASI (p<0.01, p<0.01, and p<0.05, respectively), ASI+MgB I (p<0.0001 for all), and ASI+MgB II (p<0.0001 for all) groups when compared to the control group. […] SIRT-1 and β-catenin increased in the ASI (p<0.05 and p<0.01), ASI+MgB I (p<0.001 for both), and ASI+MgB II (p<0.0001 for both) groups. Wnt-1 increased in the ASI+MgB I (p<0.001) and ASI+MgB II (p<0.0001) groups.

The nature of series [2]: Water solubility. The following applies: greater than biotin. It counts as physicochemical.
For series [3] the following is noted: preclinical models; compared to D-biotin; cited from earlier work.
Setting [4] is: day 42, compared with the control group.

As for “inositol-stabilized arginine silicate complex [ASI]”, in series [1] (setting [4]), the anagen ratio result is recorded as “increased”, the hair density result was “increased” and the telogen ratio entry was “decreased”. For the same substance, the “SIRT-1 and β-catenin” value in series [1] (molecular analysis) is “increased”. For the same substance, the “VEGF, HGF, and KGF-2” value in series [1] (molecular analysis, compared to the control group) was “increased”. In addition, in series [1] (rats), the nail growth entry is “did not affect nail growth”.

Consider magnesium biotinate, for which the “water solubility relative to biotin” value in series [2] is given as “about 40 times”. The “absorption and uptake in tissue” value in series [3] is “superior absorption and greater uptake in tissue”.
